Among the data in PubChem BioAssay AID1963980 (Molecular Pharmacology Branch, DTP, NCI, 2024) are viability, T/C and IC50 values, retold here.

This assay relates to 475296-252-R-J1-PDC spheroid viability. The assay can be described thus: Anticancer human tumor 475296-252-R-J1-PDC patient-derived rectal carcinoma cell line growth inhibition [PI3K]. To be noted: spheroids with HUVEC and MSC; for viability, T/C: stronger effect = lower value. The gist of the method:
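Three cell types, namely tumor cells, endothelial cells and mesenchymal stem cells, formed each spheroid. Combinations with four PI3K inhibitors were screened at clinically achievable concentrations decreasing by half-log, and spheroid viability was recorded.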

Where only a bound is given, the exact number is not on record here.

Broadly, the viability, T/C is the ratio of treated to control. As a reminder, the IC50 is the concentration that inhibits the measured activity by half.
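Also: spheroids exposed to agents for seven days before readout.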

Consider `CCN1CCN(Cc2ccc(Nc3ncc(F)c(-c4cc(F)c5nc(C)n(C(C)C)c5c4)n3)nc2)CC1`, for which the viability, T/C reads like this: (compound 0.00316 µM) 101% [middle of 4 runs]; (compound 0.01 µM) 100% [middle of 4 runs]; (compound 0.0316 µM) 95.7% [middle of 4 runs]; (compound 0.1 µM) 100% [middle of 4 runs]; (compound 0.316 µM) 101% [middle of 4 runs]; (compound 1 µM) 92.4% [middle of 4 runs]. Also, the IC50 (curve of compound) is more than 1000 nM.
